Laboratory results: US5324648A, “Substituted isocoumarins as serine protease inhibitors and anti-inflammatory agents” (Georgia Tech Research Corporation, priority 1992, dated 1994)
Read-outs that look alike come from different tables or passages of the source.

Columns and labels:
[1] = Prothrombin time (PT), rabbit plasma
Experimental: ^a Plasma and inhibitor were incubated at 37° C. for 1 min.,
Dade thromboplastin reagent was then added.
^b Plasma and inhibitor were incubated at 37° C. for 3 min.,
Orthobrain thromboplastin reagent was then added.

[2] = molecular target: T1, rat skin tryptase (Rattus norvegicus, UniProt P27435); experiment: Inactivation rate of rat skin tryptase; assay type: biochemical; details: pH 7.5, 25° C, read-out: kobs/[I]
T1 construct: from tissue; host or cells: rat skin
T1 sequence (P27435 29-273): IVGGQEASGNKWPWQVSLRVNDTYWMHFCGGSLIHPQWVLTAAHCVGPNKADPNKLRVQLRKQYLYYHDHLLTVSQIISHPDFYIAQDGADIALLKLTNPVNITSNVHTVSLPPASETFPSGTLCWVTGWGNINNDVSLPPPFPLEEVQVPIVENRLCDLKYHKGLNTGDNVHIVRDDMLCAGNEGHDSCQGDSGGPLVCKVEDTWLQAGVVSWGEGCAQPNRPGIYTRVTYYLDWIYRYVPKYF
In short: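 Rat skin tryptase incubated with isocoumarin inhibitor in 25 mM phosphate, 0.5 M NaCl, 1 mM EDTA, pH 7.5, 8-9% Me2SO, 25 °C; aliquots withdrawn over time for residual activity on ZArg-SBzl (0.07 mM) with 4,4'-dithiodipyridine (0.33 mM). First-order kobs from ln(vt/vo) versus time.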

[3] = molecular target: human lung tryptase; experiment: Inactivation rate of human lung tryptase; assay type: biochemical; details: pH 7.5, 25° C
In short: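 Incubation method in 0.1M Hepes, 0.5M NaCl, pH 7.5, 8% Me2SO, 25° C; inhibitor added to enzyme, aliquots withdrawn over time for residual activity. Substrate ZArg-SBzl (0.07 mM) with 4,4'-dithiodipyridine (0.33 mM). kobs from ln(vt/vo) vs time plots.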

[4] = molecular target: complement protein B (Homo sapiens, UniProt P00751); experiment: Inactivation rate of complement protein B; assay type: biochemical; details: for kinact/KI: Table II, pH 7.5, 25° C, [I] 0.19 to 1.25 mM, read-out: kobs/[I]
Chain of complement protein B (P00751 26-764): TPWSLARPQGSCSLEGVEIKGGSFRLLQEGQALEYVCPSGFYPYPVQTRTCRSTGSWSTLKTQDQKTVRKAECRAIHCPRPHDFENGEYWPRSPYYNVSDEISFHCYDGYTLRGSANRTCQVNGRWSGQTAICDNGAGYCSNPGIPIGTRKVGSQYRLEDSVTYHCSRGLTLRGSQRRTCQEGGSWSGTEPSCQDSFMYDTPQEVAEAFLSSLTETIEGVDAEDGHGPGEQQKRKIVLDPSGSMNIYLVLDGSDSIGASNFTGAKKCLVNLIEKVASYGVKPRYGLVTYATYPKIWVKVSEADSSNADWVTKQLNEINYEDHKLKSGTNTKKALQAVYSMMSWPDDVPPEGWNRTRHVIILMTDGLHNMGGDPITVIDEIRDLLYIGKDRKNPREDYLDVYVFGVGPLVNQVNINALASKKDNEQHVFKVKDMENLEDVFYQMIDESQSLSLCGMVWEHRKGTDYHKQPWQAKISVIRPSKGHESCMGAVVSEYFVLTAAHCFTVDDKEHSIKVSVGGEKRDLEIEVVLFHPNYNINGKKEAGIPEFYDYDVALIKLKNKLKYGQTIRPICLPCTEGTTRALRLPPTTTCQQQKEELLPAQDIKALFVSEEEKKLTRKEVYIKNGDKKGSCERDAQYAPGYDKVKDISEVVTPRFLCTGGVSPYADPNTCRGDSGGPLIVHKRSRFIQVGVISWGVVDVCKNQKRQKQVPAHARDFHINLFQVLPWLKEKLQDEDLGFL
Experimental: (§1) Inactivation rates of serine proteases by substituted isocoumarins were measured by the incubation method. An aliquot of inhibitor (25 or 50 μl) in Me2 SO was added to a buffered enzyme solution (0.01-2.3 μM) to initiate the inactivation. Aliquots (50 μl) were withdrawn at various intervals and the residual enzymatic activity was measured. Me2 SO concentration in the reaction mixture was 8-12% (v/v). 0.1 Hepes, 0.01M CaCl2, pH 7.5 buffer was utilized for trypsin and coagulation enzymes. 0.1M Hepes, 0.5M NaCl, pH 7.5 was utilized for other serine proteases. The inhibitor concentrations are shown in all the tables. Peptide thioesters or peptide nitroanilides with appropriate sequence were used as substrates for various serine proteases. All peptide thioester hydrolysis rates were measured with assay mixtures containing 4,4'-dithiodipyridine (ε324 =19800M^-1 cm^-1; Grasetti & Murray, Arch. Biochem. Biophys. 119, pp 41-49 (1967)). Peptide 4-nitroanilide nitroanilide hydrolysis was measured at 410 nm (ε410 =8800M^-1 cm^-1; Erlanger et al., Arch. Biochem. Biophys. 95, pp 271-278 (1961)). First order inactivation rate constant (kobs) were obtained from plots of ln (vt /vo) vs time, and the correlation coefficients were greater than 0.98.
(§2) ^a Conditions were 0.1M Hepes, 0.5M NaCl, pH 7.5, 8-10% Me2 SO
(§3) and 25° C. Inactivation rates were measured by incubation method.
(§4) Enzyme concentrations were as follows: protein D, 1-9 μM; C2, 0.7-1
(§5) μM; B, 1.8 μM; Bb, 0.3-0.8 μM; Cl^- s, 0.07 μM; Cl^-

[5] = molecular target: recombinant human tissue plasminogen activator (Homo sapiens, UniProt P00750); experiment: Inactivation rate of recombinant human tissue plasminogen activator; assay type: biochemical; details: pH 7.5, 25° C, read-out: kobs/[I]
Chain of recombinant human tissue plasminogen activator (P00750 36-562): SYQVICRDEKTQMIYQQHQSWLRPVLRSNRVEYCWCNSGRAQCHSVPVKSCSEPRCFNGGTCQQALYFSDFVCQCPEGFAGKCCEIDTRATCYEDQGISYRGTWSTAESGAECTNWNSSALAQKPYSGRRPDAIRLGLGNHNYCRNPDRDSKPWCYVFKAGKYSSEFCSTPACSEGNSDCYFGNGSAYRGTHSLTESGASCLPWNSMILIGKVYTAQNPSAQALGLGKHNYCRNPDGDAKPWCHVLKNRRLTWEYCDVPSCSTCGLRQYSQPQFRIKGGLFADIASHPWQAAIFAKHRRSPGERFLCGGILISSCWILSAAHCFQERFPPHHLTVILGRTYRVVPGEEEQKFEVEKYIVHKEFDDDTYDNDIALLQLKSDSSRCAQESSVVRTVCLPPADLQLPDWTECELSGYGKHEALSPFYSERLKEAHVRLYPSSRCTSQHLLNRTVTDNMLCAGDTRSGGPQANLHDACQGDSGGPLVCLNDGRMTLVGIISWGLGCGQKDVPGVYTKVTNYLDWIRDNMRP
In short: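 Incubation method: enzyme mixed with inhibitor in Me2SO (8–12% v/v) in 0.1M Hepes, 0.5M NaCl, pH 7.5; aliquots withdrawn over time for residual activity with ZArg-SBzl (0.07 mM) plus 4,4'-dithiodipyridine (0.33 mM). kobs taken from ln(vt/vo) versus time plots.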

[6] = molecular target: T2, complement protein C2 (Homo sapiens, UniProt P06681); experiment: Inactivation rate of complement protein C2; assay type: biochemical; details: for kinact/KI: Table II, pH 7.5, 25° C, [I] 0.19 to 1.25 mM, read-out: kobs/[I]
T2 sequence (P06681 21-752): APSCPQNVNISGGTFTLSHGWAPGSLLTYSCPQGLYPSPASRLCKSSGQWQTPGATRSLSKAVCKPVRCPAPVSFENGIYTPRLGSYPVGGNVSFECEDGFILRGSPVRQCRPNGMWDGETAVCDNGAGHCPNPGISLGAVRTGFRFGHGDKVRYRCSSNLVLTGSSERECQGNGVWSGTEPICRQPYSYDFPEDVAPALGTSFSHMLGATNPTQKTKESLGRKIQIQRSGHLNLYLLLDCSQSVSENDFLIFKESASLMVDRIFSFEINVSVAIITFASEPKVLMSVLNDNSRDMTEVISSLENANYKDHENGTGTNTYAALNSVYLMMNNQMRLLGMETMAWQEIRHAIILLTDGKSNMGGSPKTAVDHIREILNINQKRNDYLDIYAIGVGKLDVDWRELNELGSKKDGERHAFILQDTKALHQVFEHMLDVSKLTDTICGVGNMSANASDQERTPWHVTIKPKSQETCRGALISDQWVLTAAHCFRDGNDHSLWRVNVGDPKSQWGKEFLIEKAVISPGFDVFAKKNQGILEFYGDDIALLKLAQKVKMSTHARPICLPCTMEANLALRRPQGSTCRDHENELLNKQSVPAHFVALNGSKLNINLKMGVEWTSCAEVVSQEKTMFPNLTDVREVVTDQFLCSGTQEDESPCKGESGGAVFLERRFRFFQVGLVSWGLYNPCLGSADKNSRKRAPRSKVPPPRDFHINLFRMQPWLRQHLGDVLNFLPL
Experimental: as §1, §2, §3, §4, §5

[7] = molecular target: T3, Bb (Homo sapiens, UniProt P00751); experiment: Inactivation rate of complement fragment Bb; assay type: biochemical; details: Table II; pH 7.5, 25° C; [I] 0.05 to 1.25 mM; read-out: kobs/[I]
T3 construct: active fragments C2a, Bb
T3 sequence (P00751 260-764 limits assumed): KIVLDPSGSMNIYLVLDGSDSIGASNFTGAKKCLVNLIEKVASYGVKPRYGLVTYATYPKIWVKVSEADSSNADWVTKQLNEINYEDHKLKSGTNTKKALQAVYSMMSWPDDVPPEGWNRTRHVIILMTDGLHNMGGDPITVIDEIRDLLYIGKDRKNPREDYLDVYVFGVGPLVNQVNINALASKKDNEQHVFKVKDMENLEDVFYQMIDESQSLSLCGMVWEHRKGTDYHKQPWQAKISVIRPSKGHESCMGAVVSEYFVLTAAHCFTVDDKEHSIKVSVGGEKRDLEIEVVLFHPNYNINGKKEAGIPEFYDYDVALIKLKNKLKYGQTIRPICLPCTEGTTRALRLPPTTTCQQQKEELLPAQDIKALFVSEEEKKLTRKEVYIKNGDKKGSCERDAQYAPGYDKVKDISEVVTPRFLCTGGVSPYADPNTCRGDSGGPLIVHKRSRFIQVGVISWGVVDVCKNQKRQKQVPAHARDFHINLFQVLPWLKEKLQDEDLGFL
Experimental: as §1, §2, §3, §4, §5

[8] = Spontaneous hydrolysis in human plasma; assay type: in vitro ADME; details: for half-life: human plasma, read-out: t1/2 for spontaneous hydrolysis
[9] = molecular target: T4, human factor Xa (Homo sapiens, UniProt P00742); experiment: Inactivation rate of human factor Xa; assay type: biochemical; details: pH 7.5, 25° C, read-out: kobs/[I]
T4 construct: human factor Xa
T4 sequence (P00742 235-488 limits assumed): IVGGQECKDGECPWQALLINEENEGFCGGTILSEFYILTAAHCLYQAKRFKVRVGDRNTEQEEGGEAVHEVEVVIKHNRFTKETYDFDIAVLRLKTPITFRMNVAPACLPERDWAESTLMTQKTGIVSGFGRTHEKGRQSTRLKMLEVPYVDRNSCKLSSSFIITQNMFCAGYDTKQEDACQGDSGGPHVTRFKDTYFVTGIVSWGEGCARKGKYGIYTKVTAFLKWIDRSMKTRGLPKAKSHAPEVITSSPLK
T4 sequence (P00742 41-179 partner limits assumed): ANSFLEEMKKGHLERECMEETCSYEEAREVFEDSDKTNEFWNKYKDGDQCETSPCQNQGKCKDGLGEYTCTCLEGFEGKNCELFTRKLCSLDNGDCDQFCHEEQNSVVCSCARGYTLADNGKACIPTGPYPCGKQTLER
In short: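 Incubation method: isocoumarin inhibitor in Me2SO added to enzyme (0.01-2.3 μM) in 0.1M Hepes, 0.01M CaCl2, pH 7.5, 8-12% Me2SO, 25° C; aliquots withdrawn over time for residual activity against peptide thioester or 4-nitroanilide substrates. kobs from ln(vt/vo) vs time.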

[10] = pH 7.5, Table III, 25 mM phosphate, [I] 0.4 to 50 μM
[11] = pH 7.5, Table VI, [I] 7 to 44 μM
[12] = pH 7.5, Table IX, [I] 0.42-0.51 μM
[13] = pH 7.5, Table IX, [I] 3.5-5.0 μM

Structure (SMILES)	kinact/KI [2, 10]	kobs/[I] ([3]; Table III, [I] 0.4 to 50 μM)	kinact/KI [5, 11]	kinact/KI [7]	kinact/KI [4]	half-life [8]	kinact/KI ([9]; Table I, [I] 5 to 105 μM)	also measured
O=c1oc(Cl)c(Cl)c2ccccc12 [3,4-dichloroisocoumarin, reference compound]	610 M⁻¹ s⁻¹	185 M⁻¹ s⁻¹	73 M⁻¹ s⁻¹	–	–	–	–	PT ([1]; [I] 33 μM, 3 min, Orthobrain thromboplastin): 14.3 s; inhibition of protein B (in words) [4]: do not show any inhibition; inhibition of C2 (in words) [6]: do not show any inhibition
N=C(N)SCCOc1oc(=O)c2ccccc2c1Cl [3-(2-isothiureidoethoxy)-4-chloroisocoumarin]	–	–	–	15 M⁻¹ s⁻¹	13 M⁻¹ s⁻¹	–	–	kinact/KI [6]: 1.5 M⁻¹ s⁻¹
NCCCOc1oc(=O)c2ccccc2c1Cl [3-(3-aminopropoxy)-4-chloroisocoumarin]	8370 M⁻¹ s⁻¹	2,000 M^-1 s^-1	94 M⁻¹ s⁻¹	–	–	–	–	–
N=C(N)SCCCOc1oc(=O)c2ccccc2c1Cl [3-(3-isothiureidopropoxy)-4-chloroisocoumarin]	53000 M⁻¹ s⁻¹	64,000 M^-1 s^-1	4690 M⁻¹ s⁻¹	0.8 M⁻¹ s⁻¹	0.4 M⁻¹ s⁻¹	0.5 min	–	kinact/KI [6]: 0.5 M⁻¹ s⁻¹
N=C(N)SCCCOc1oc(=O)c2cc(N)ccc2c1Cl [7-amino-4-chloro-3-(3-isothiureidopropoxy)isocoumarin]	63000 M⁻¹ s⁻¹	28,000 M^-1 s^-1	5690 M⁻¹ s⁻¹	–	–	165 min	60 M⁻¹ s⁻¹	PT ([1]; [I] 33 μM, 1 min, Dade thromboplastin): 13.7 s; PT ([1]; [I] 131 μM, 1 min, Dade thromboplastin): 62.0 s; kinact/KI [2, 12]: 39000 M⁻¹ s⁻¹; kobs/[I] ([3]; Table IX, [I] 0.42-0.47 μM): 19,000 M^-1 s^-1; stability in human plasma (in words) [8]: fairly stable; kinact/KI [5, 13]: 13000 M⁻¹ s⁻¹
CCOc1oc(=O)c2cc(NC(=N)N)ccc2c1Cl [7-guanidino-3-ethoxy-4-chloroisocoumarin, 7-guanidino-4-chloro-3-ethoxyisocoumarin]	82000 M⁻¹ s⁻¹	61,000 M^-1 s^-1	7720 M⁻¹ s⁻¹	95 M⁻¹ s⁻¹	167 M⁻¹ s⁻¹	8.2 min	11000 M⁻¹ s⁻¹	PT ([1]; [I] 15 μM, 1 min, Dade thromboplastin): 14.2 s; PT ([1]; [I] 31 μM, 1 min, Dade thromboplastin): 27.4 s; PT ([1]; [I] 31 μM, 3 min, Orthobrain thromboplastin): 17.2 s; PT ([1]; [I] 124 μM, 3 min, Orthobrain thromboplastin): > 120 s
N=C(N)Nc1ccc2c(Cl)c(OCCc3ccccc3)oc(=O)c2c1 [7-guanidino-4-chloro-3-(2-phenylethoxy)isocoumarin]	86000 M⁻¹ s⁻¹	56,000 M^-1 s^-1	6780 M⁻¹ s⁻¹	58 M⁻¹ s⁻¹	–	4.5 min	11000 M⁻¹ s⁻¹	–
COc1oc(=O)c2cc(NC(=N)N)ccc2c1Cl [7-guanidino-4-chloro-3-methoxyisocoumarin]	52000 M⁻¹ s⁻¹	20,000 M^-1 s^-1	4420 M⁻¹ s⁻¹	74 M⁻¹ s⁻¹	285 M⁻¹ s⁻¹	6.7 min	11000 M⁻¹ s⁻¹	–
N=C(N)SCCOc1oc(=O)c2cc(NC(=O)Nc3ccccc3)ccc2c1Cl [PhNHCONH-CiTEtOIC, 7-(phenylcarbamoylamino)-4-chloro-3-(2-isothiureidoethoxy)isocoumarin]	–	–	–	–	–	–	–	kinact/KI [2, 12]: 170000 M⁻¹ s⁻¹; kobs/[I] ([3]; Table IX, [I] 0.42-0.47 μM): 170,000 M^-1 s^-1; kinact/KI [5, 13]: 16000 M⁻¹ s⁻¹; kinact/KI ([9]; Table VIII, [I] 3.6-44 μM): 4740 M⁻¹ s⁻¹
